Reference: ChEMBL document CHEMBL4400572, “Small structural alterations greatly influence the membrane affinity of lipophilic ligands: Membrane interactions of bafilomycin A1 and its desmethyl derivative bearing 19F-labeling” (Bioorg Med Chem, 2019)

Experiments:
[1] = Permeability of the compound assessed as molar fraction in acceptor well at 0.5 mM measured after 16 hrs by PAMPA; type: ADME; details: 500 µM
[2] = Permeability of the compound assessed as molar fraction in donor well at 0.5 mM measured after 2 hrs by PAMPA; type: ADME; details: 500 µM
[3] = Permeability of the compound assessed as rate constant for partitioning to the membrane by PAMPA; type: ADME
[4] = Permeability of the compound assessed as molar fraction in donor well at 0.5 mM measured immediately by PAMPA; type: ADME; details: 500 µM
[5] = Permeability of the compound assessed as molar fraction in membrane at 0.5 mM measured after 2 hrs by PAMPA; type: ADME; details: 500 µM
[6] = system: Lipid bilayer; assay: Binding affinity to POPC liposome membrane assessed as intrinsic dipolar splitting (D) at <1 mg by solid-state 19F NMR spectra analysis
[7] = Permeability of the compound assessed as molar fraction in acceptor well at 0.5 mM measured after 2 hrs by PAMPA; type: ADME; details: 500 µM
[8] = Permeability of the compound assessed as ratio of Kin to Kout by PAMPA; type: ADME
[9] = Permeability of the compound assessed as molar fraction in membrane at 0.5 mM measured after 16 hrs by PAMPA; type: ADME; details: 500 µM
[10] = Permeability of the compound assessed as molar fraction in donor well at 0.5 mM measured after 16 hrs by PAMPA; type: ADME; details: 500 µM
[11] = Permeability of the compound assessed as rate constant for coming off the membrane by PAMPA; type: ADME
[12] = n-Octanol/water partition coefficient, log P of the compound by UV-RP-HPLC analysis; type: physicochemical
[13] = n-Octanol/water partition coefficient, log P of the compound by RP-HPLC analysis; type: physicochemical
[14] = Permeability of the compound by PAMPA

permeability [1] [%] | permeability [2] [%] | K [3] [×10⁻⁵ /s] | permeability [4] [%] | permeability [5] [%] | D [6] [kHz] | permeability [7] [%] | Ratio [8] | permeability [9] [%] | permeability [10] [%] | K [11] [×10⁻⁷ /s] | logP [12] | logP [13] | Structure (SMILES) | Papp [14] [×10⁻⁶ cm/s]
-0.2 | 52.2 | 9.55 | 100 | 48.3 | 2.9 | -0.5 | 393 | 83.7 | 16.6 | 2.47 | 4.54 | – | CO/C1=C\C(C)=C\[C@@H](C)[C@@H](O)[C@@H](C)C/C(C)=C/C=C/[C@H](OC)[C@@H]([C@@H](C)[C@@H](O)[C@H](C)[C@@]2(O)C[C@@H](O)[C@H](C)[C@@H](C(F)(F)F)O2)OC1=O | –
– | – | – | – | – | – | – | – | – | – | – | 3.84 | – | Cc1ccc(C(=O)c2ccc(C)cc2)cc1 | –
6.7 | 63.4 | 7.08 | 100 | 33.7 | 2.4 | 2.8 | 143 | 63.1 | 30.2 | 5.91 | 2.81 | – | CO/C1=C\C(C)=C\C[C@@H](O)CC/C(C)=C/C=C/[C@H](OC)[C@@H]([C@@H](C)[C@@H](O)[C@H](C)[C@@]2(O)C[C@@H](O)[C@H](C)[C@@H](C(F)(F)F)O2)OC1=O | –
– | – | – | – | – | – | – | – | – | – | – | – | 1.9 | OC/C=C/c1ccccc1 [CINNAMIC ALCOHOL] | –
– | – | – | – | – | – | – | – | – | – | – | – | – | Cn1c(=O)c2[nH]cnc2n(C)c1=O.O [THEOPHYLLINE] | 0.0848
– | – | – | – | – | – | – | – | – | – | – | – | 4.29 | Cc1c(Cl)cccc1Cl | –

Structure (SMILES) | permeability [1] [%] | permeability [2] [%] | K [3] [×10⁻⁵ /s] | permeability [4] [%] | permeability [5] [%] | D [6] [kHz] | permeability [7] [%] | Ratio [8] | permeability [9] [%] | permeability [10] [%] | K [11] [×10⁻⁷ /s] | logP [12] | logP [13] | Papp [14] [×10⁻⁶ cm/s]
CO/C1=C\C(C)=C\[C@@H](C)[C@@H](O)[C@@H](C)C/C(C)=C/C=C/[C@H](OC)[C@@H]([C@@H](C)[C@@H](O)[C@H](C)[C@@]2(O)C[C@@H](O)[C@H](C)[C@@H](C(C)C)O2)OC1=O [BAFILOMYCIN A1] | -1.5 | 27.4 | 20.7 | 100 | 67.9 | – | 4.8 | 1170 | 90.5 | 11 | 3.25 | 4.74 | – | –
